System: 966289-007-R4-J1-PDC complex spheroid viability
Assay: Anticancer human tumor 966289-007-R4-J1-PDC patient-derived pancreatic adenocarcinoma cell line growth inhibition [RAS]
Conditions: for IC50: curve of first compound; for viability, T/C: stronger effect = lower value
In short: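 Tumour cells grown as complex spheroids with HUVEC endothelial cells and mesenchymal stem cells, treated with RAS pathway inhibitor combinations. Each agent spans half-log steps from near clinical Cmax, or 10 microM where Cmax is unknown.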

[1] = second compound 0.000949 µM, first compound 0.0316 µM
[2] = second compound 0.000949 µM, first compound 0.1 µM
[3] = second compound 0.000949 µM, first compound 0.316 µM
[4] = second compound 0.000949 µM, first compound 1 µM
[5] = second compound 0.000949 µM, first compound 3.16 µM
[6] = second compound 0.000949 µM, first compound 10 µM
[7] = second compound 0.003 µM, first compound 0.0316 µM
[8] = second compound 0.003 µM, first compound 0.1 µM
[9] = second compound 0.003 µM, first compound 0.316 µM
[10] = second compound 0.003 µM, first compound 1 µM
[11] = second compound 0.003 µM, first compound 3.16 µM
[12] = second compound 0.003 µM, first compound 10 µM
[13] = second compound 0.00949 µM, first compound 0.0316 µM
[14] = second compound 0.00949 µM, first compound 0.1 µM
[15] = second compound 0.00949 µM, first compound 0.316 µM
[16] = second compound 0.00949 µM, first compound 1 µM
[17] = second compound 0.00949 µM, first compound 3.16 µM
[18] = second compound 0.00949 µM, first compound 10 µM
[19] = second compound 0.03 µM, first compound 0.0316 µM
[20] = second compound 0.03 µM, first compound 0.1 µM
[21] = second compound 0.03 µM, first compound 0.316 µM
[22] = second compound 0.03 µM, first compound 1 µM
[23] = second compound 0.03 µM, first compound 3.16 µM
[24] = second compound 0.03 µM, first compound 10 µM
[25] = second compound 0.0949 µM, first compound 0.0316 µM
[26] = second compound 0.0949 µM, first compound 0.1 µM
[27] = second compound 0.0949 µM, first compound 0.316 µM
[28] = second compound 0.0949 µM, first compound 1 µM
[29] = second compound 0.0949 µM, first compound 3.16 µM
[30] = second compound 0.0949 µM, first compound 10 µM
[31] = second compound 0.3 µM, first compound 0.0316 µM
[32] = second compound 0.3 µM, first compound 0.1 µM
[33] = second compound 0.3 µM, first compound 0.316 µM
[34] = second compound 0.3 µM, first compound 1 µM
[35] = second compound 0.3 µM, first compound 3.16 µM
[36] = second compound 0.3 µM, first compound 10 µM
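Also: spheroids exposed to agents for one week before readout.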
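For viability, T/C in this document: percent viability relative to DMSO vehicle control wells as 100%.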

CC(Nc1ccc2c(c1)OCCn1cc(N3C(=O)OCC3C(F)F)nc1-2)C(N)=O (centres undefined) + CCn1c(-c2cccnc2C(C)OC)c2c3cc(ccc31)N1CCOC(CC(NC(=O)C(C(C)C)N(C)C(=O)C3(F)CCN(C(=O)C#CC(C)(C)N(C)C)CC3)C(=O)N3CCCC(N3)C(=O)OCC(C)(C)C2)C1
IC50 (second compound 0.000949 µM): > 10 µM | IC50 (second compound 0.003 µM): > 10 µM | IC50 (second compound 0.00949 µM): > 10 µM | IC50 (second compound 0.03 µM): > 10 µM | IC50 (second compound 0.0949 µM): > 10 µM | IC50 (second compound 0.3 µM): > 10 µM | viability, T/C [1]: 97.2% | viability, T/C [2]: 114% | viability, T/C [3]: 121% | viability, T/C [4]: 77.1% | viability, T/C [5]: 90.5% | viability, T/C [6]: 74.9% | viability, T/C [7]: 93.7% | viability, T/C [8]: 99.9% | viability, T/C [9]: 111% | viability, T/C [10]: 83.4% | viability, T/C [11]: 78.2% | viability, T/C [12]: 86.1% | viability, T/C [13]: 73.8% | viability, T/C [14]: 105% | viability, T/C [15]: 111% | viability, T/C [16]: 92.6% | viability, T/C [17]: 103% | viability, T/C [18]: 77.3% | viability, T/C [19]: 60.7% | viability, T/C [20]: 94.2% | viability, T/C [21]: 106% | viability, T/C [22]: 82.3% | viability, T/C [23]: 114% | viability, T/C [24]: 88.5% | viability, T/C [25]: 69.8% | viability, T/C [26]: 91.7% | viability, T/C [27]: 105% | viability, T/C [28]: 108% | viability, T/C [29]: 105% | viability, T/C [30]: 82% | viability, T/C [31]: 101% | viability, T/C [32]: 94.8% | viability, T/C [33]: 124% | viability, T/C [34]: 97% | viability, T/C [35]: 135% | viability, T/C [36]: 73.8%

C[C@@H](NC(=O)c1ncnc(N)c1Cl)c1ncc(C(=O)Nc2cc(C(F)(F)F)c(Cl)cn2)s1 + CCn1c(-c2cccnc2C(C)OC)c2c3cc(ccc31)N1CCOC(CC(NC(=O)C(C(C)C)N(C)C(=O)C3(F)CCN(C(=O)C#CC(C)(C)N(C)C)CC3)C(=O)N3CCCC(N3)C(=O)OCC(C)(C)C2)C1
IC50 (second compound 0.000949 µM): > 10 µM | IC50 (second compound 0.003 µM): > 10 µM | IC50 (second compound 0.00949 µM): > 10 µM | IC50 (second compound 0.03 µM): > 10 µM | IC50 (second compound 0.0949 µM): > 10 µM | IC50 (second compound 0.3 µM): > 10 µM | viability, T/C [1]: 115% | viability, T/C [2]: 92.1% | viability, T/C [3]: 91.9% | viability, T/C [4]: 47.5% | viability, T/C [5]: 66.5% | viability, T/C [6]: 100% | viability, T/C [7]: 92.5% | viability, T/C [8]: 75.4% | viability, T/C [9]: 118% | viability, T/C [10]: 61% | viability, T/C [11]: 72.3% | viability, T/C [12]: 118% | viability, T/C [13]: 70.2% | viability, T/C [14]: 80.6% | viability, T/C [15]: 71.3% | viability, T/C [16]: 85% | viability, T/C [17]: 115% | viability, T/C [18]: 111% | viability, T/C [19]: 55.4% | viability, T/C [20]: 57.1% | viability, T/C [21]: 81% | viability, T/C [22]: 73.5% | viability, T/C [23]: 120% | viability, T/C [24]: 98.5% | viability, T/C [25]: 55.5% | viability, T/C [26]: 99.1% | viability, T/C [27]: 87% | viability, T/C [28]: 78.2% | viability, T/C [29]: 106% | viability, T/C [30]: 134% | viability, T/C [31]: 65.6% | viability, T/C [32]: 91.7% | viability, T/C [33]: 90.5% | viability, T/C [34]: 117% | viability, T/C [35]: 146% | viability, T/C [36]: 105%
